pIC50: −log10 of the molar value. Values joined by “and” are separate entries in the source; they are usually repeats but may differ in a detail not shown here. Equal values may be shown once. One block for each compound: values may come before it.
Legend:
Assay type in all cases: cell-based, human
[1] = test system: proliferating IMR90 cells; test: BrdU incorporation proliferation assay; conditions: IMR90 cells; single replicates (SUP FIG 9G)
Method: 5-bromo-2′-deoxyuridine (BrdU) incorporation was used to measure the number of cells actively replicating DNA. Cells were incubated with 10 μM BrdU (85811, Sigma) for 18 h. After that, cells were fixed with 4% Paraformaldehyde, permeabilised, blocked and then stained for immunofluorescence using BrdU primary antibody (555627 BD Pharmigen), Alexa fluor secondary for detection, and DAPI staining for cell counting. Acquisition was done with a Nikon TI2 microscope and analysis was performed with ImageJ for cell counting.

[2] = test system: IL1α, IL1β and IL8 mRNA in IMR90 cells at passage 27; test: IL1α, IL1β and IL8 mRNA expression by RT-qPCR, replicative senescence; conditions: Replicative senescence, OLE group mean, DMSO = 1
Method: (§1) Total RNA was isolated using RNAeasy kit (Quiagen). cDNA was generated with reverse transcriptase iScript (Bio-Rad). RT-qPCR was performed using SYBR Select Master Mix (Applied Biosystems) in OneStepPlus detection system (Applied Biosystems). Oligos for amplification were: NOXA Fw-[…] and Rv-[…]; b-ACTIN Fw-[…] and Rv-[…]; IL1a Fw-[…] and Rv- […]; IL1b Fw-[…] and Rv- […]; IL8 Fw-[…] and Rv-[…]; p16 Fw-CGGTCGGAGGCCGATCCAG and Rv- […]; p21Fw-[…] and Rv- […].

[3] = test system: IL1α, IL1β and IL8 mRNA in IMR90 ER:RAS cells; test: IL1α, IL1β and IL8 mRNA expression by RT-qPCR, OIS; conditions: ER:RAS cells, RAS OLE group mean, RAS C (DMSO) = 1
Method: as §1

[4] = test system: p16 and p21 mRNA in IMR90 cells at passage 27; test: p16 and p21 mRNA expression by RT-qPCR, replicative senescence; conditions: Replicative senescence; Replicative senescence DMSO = 1; n 3
Method: as §1

[5] = test system: p16 and p21 mRNA in IMR90 ER:RAS cells; test: p16 and p21 mRNA expression by RT-qPCR, OIS; conditions: ER:RAS cells; ER:RAS DMSO = 1; n 4
Method: as §1

[6] = test system: non-senescent control A549 cells; test: Nuclei count senolytic assay, TIS model, non-senescent control cells; conditions: for % Cell Survival: control cells, single replicate
Method: (§2) We performed a second validation of the effectiveness of our machine learning models using a different stressor. We focused on therapy-induced senescence (TIS, Supplementary Fig. 6a), where human epithelial cancerous cells (A549) were induced to become senescent by addition of etoposide. Cells were treated with 100 μM etoposide for 48 h, followed by another three days of exposure to media in standard conditions.
(§3) We performed experimental validation of the compounds with z-score > 8 (Fig. 2e). […] We employed two cellular models of senescence: one of OIS and a second one of TIS. For the OIS case, we utilised IMR90 ER:RAS cells with 4-OHT at 100 nM. […] For the TIS model, we used A549 cells with etoposide at 100 μM. The exposure of the cells to etoposide lasted 48 h, after which period the cells were cultivated for a further three days with normal media.
(§4) IMR90 (CCL-186) human foetal lung fibroblasts and A549 (CCL-185) human lung adenocarcinoma cells were obtained from the American Type Culture Collection (ATCC, Manassas, VA). The cell lines were confirmed to be mycoplasma negative (Lonza MycoAlert, cat #LT07-118). IMR90 ER:RAS is a derivative of IMR90 cells expressing a switchable version of oncogenic H-Ras[84]. IMR90 ER:RAS and A549 cells were maintained in Dulbecco’s Modified Eagle Medium (DMEM, ThermoFisher) supplemented with foetal bovine serum (10%), L-glutamine (2 mM, ThermoFisher), and antibiotic-antimycotic solution (1%, ThermoFisher) and incubated under standard tissue culture conditions (37 °C and 5% CO2). For induction of the senescent phenotype, IMR90-ER:RAS cells were cultured in hydroxytamoxifen (4-OHT) (Sigma) added media at 100 nM final concentration. IMR90 were kept in culture for over 27 passages for replicative senescence. Cells were tested for mycoplasma on a regular basis.
(§5) Cells were seeded (50 μL per well) into 384-well plates (IMR90 ER:RAS cells in Nunc Optical Bottom Polybase Microplates [#142761, Thermo Scientific, Rochester, NY] and A549 cells in CELLSTAR Cell Culture Microplates [#781091, Greiner Bio-One, Kremsmünster, Austria]). Cells were incubated under standard tissue culture conditions for 24 h before the addition of compounds. Passage 14 IMR90 ER:RAS cells were seeded at 1300 cells per well in the control condition, and at 1600 cells per well in the senescent case. Passage 34 A549 cells were seeded at 7000 cells per well in the control condition, and at 10,000 cells per well in the senescent case.
(§6) Dose response plates were prepared with a DMSO control and a 10-point […] concentration range, and added to the compounds using a D300e digital dispenser (Tecan Trading AG, Switzerland) at a final concentration of between 10 μM and 10 nM. Every screened condition was carried out in triplicate. After 72 h of incubation with exposure to the compounds, cells were fixed by the addition of an equal volume of formaldehyde (8%, 50 μL; #BP531-500, Fisher Bioreagents, Fisher Scientific, Loughborough, Leicestershire) to the existing media, incubated at room temperature (30 min), and washed three times in phosphate-buffered saline (PBS). Cells were then permeabilised in Triton-X100 (0.1%, 50 μL) and incubated at room temperature (30 min) followed by three more washes with PBS.
(§7) Cells were stained with Hoechst 33342 for nuclei count (excitation/emission wavelength at 387/447 […], DAPI channel, original concentration at 10 mg/ml, final concentration at 2 μg/ml; H1399, Molecular Probes, Eugene, OR). The staining solution was prepared in bovine serum albumin solution (10%). The staining solution was added to each well (30 μL) and incubated in the dark at room temperature (30 min), followed by three washes with PBS and no final aspiration. Plates were foil sealed.
(§8) Plates were imaged on an ImageXpress micro XLS (Molecular Devices, Eugene, OR) equipped with a robotic plate loader (Scara4, PAA, UK).

[7] = test system: senescent A549 cells (etoposide-induced); test: Nuclei count senolytic assay, therapy-induced senescence (TIS) model, senescent cells; conditions: for % Cell Survival: senescence cells, single replicate
Method: as §2, §3, §4, §5, §6, §7, §8

Structure (SMILES): COc1cc([C@@H]2c3cc4c(cc3[C@@H](O[C@@H]3O[C@@H]5CO[C@@H](C)O[C@H]5[C@H](O)[C@H]3O)[C@H]3COC(=O)[C@H]23)OCO4)cc(OC)c1O [Etoposide]
- % BrdU positive cells [1]: 3.24% and 11.47% and 6.41% and 6.29%

Structure (SMILES): COC1CC(OC2CCC3(C)C(CCC4C3CCC3(C)C(C5=CC(=O)OC5)C(OC(C)=O)CC43O)C2)OC(C)C1O (stereo not drawn) [OLE]
- Il1a mRNA expression, mean (Mean 2) ([2]; n=3): 0.411
- Il8 mRNA expression, mean (Mean 2) ([2]; n=3): 0.5871
- Il1b mRNA expression, mean (Mean 2) ([2]; n=4): 0.4327
- Il1a mRNA expression, mean (Mean 2) ([3]; n=4): 0.4376
- Il8 mRNA expression, mean (Mean 2) ([3]; n=5): 0.3662
- Il1b mRNA expression, mean (Mean 2) ([3]; n=6): 0.7128
- p16 mRNA expression, mean (Test details, Mean 2) [4]: 0.5298
- p21 mRNA expression, mean (Test details, Mean 2) [4]: 0.4442
- p16 mRNA expression, mean (Test details, Mean 2) [5]: 0.5169
- p21 mRNA expression, mean (Test details, Mean 2) [5]: 0.5115

- pIC50 ([6]; Homo sapiens, TIS model, non-senescent A549, nuclei count, 72 h): 4.99
- pIC50 ([7]; Homo sapiens, TIS model, etoposide-induced senescent A549, nuclei count, 72 h): 6.36
Structure (SMILES): CC1(C)CCC(c2ccc(Cl)cc2)=C(CN2CCN(c3ccc(C(=O)NS(=O)(=O)c4ccc(N[C@H](CCN5CCOCC5)CSc5ccccc5)c(S(=O)(=O)C(F)(F)F)c4)cc3)CC2)C1 [navitoclax, reference compound]
- viability at 10 µM ([6]; Homo sapiens, A549, log (dose) [M] -5, Control cells, mean, read-out: Mean % Cell Survival): 61.6%
- viability at 4.68 µM ([6]; Homo sapiens, A549, log (dose) [M] -5.33, Control cells, mean, read-out: Mean % Cell Survival): 105%
- viability at 2.19 µM ([6]; Homo sapiens, A549, log (dose) [M] -5.66, Control cells, mean, read-out: Mean % Cell Survival): 107%
- viability at 1 µM ([6]; Homo sapiens, A549, log (dose) [M] -6, Control cells, mean, read-out: Mean % Cell Survival): 129%
- viability at 0.468 µM ([6]; Homo sapiens, A549, log (dose) [M] -6.33, Control cells, mean, read-out: Mean % Cell Survival): 116%
- viability at 0.219 µM ([6]; Homo sapiens, A549, log (dose) [M] -6.66, Control cells, mean, read-out: Mean % Cell Survival): 109%
- viability at 0.1 µM ([6]; Homo sapiens, A549, log (dose) [M] -7, Control cells, mean, read-out: Mean % Cell Survival): 97.7%
- viability at 0.0468 µM ([6]; Homo sapiens, A549, log (dose) [M] -7.33, Control cells, mean, read-out: Mean % Cell Survival): 98.7%
- viability at 0.0219 µM ([6]; Homo sapiens, A549, log (dose) [M] -7.66, Control cells, mean, read-out: Mean % Cell Survival): 96.8%
- viability at 0.01 µM ([6]; Homo sapiens, A549, log (dose) [M] -8, Control cells, mean, read-out: Mean % Cell Survival): 98.9%
- % Cell Survival ([6]; log (dose) [M] -5): 52.0394% and 75.3687% and 57.3758%
- % Cell Survival ([6]; log (dose) [M] -5.33): 116.878% and 75.1475% and 123.277%
- % Cell Survival ([6]; log (dose) [M] -5.66): 112.518% and 117.404% and 91.8458%
- % Cell Survival ([6]; log (dose) [M] -6): 119.058% and 135.177% and 132.987%
- % Cell Survival ([6]; log (dose) [M] -6.33): 128.692% and 108.112% and 112.083%
- % Cell Survival ([6]; log (dose) [M] -6.66): 114.276% and 101.991% and 109.489%
- % Cell Survival ([6]; log (dose) [M] -7): 92.6864% and 99.5575% and 100.964%
- % Cell Survival ([6]; log (dose) [M] -7.33): 97.6793% and 98.2301% and 100.074%
- % Cell Survival ([6]; log (dose) [M] -7.66): 95.0774% and 99.4838% and 95.7746%
- % Cell Survival ([6]; log (dose) [M] -8): 98.1716% and 98.2301% and 100.445%
- viability at 10 µM ([7]; Homo sapiens, A549, log (dose) [M] -5, Senescent cells, mean, read-out: Mean % Cell Survival): 6.32%
- viability at 4.68 µM ([7]; Homo sapiens, A549, log (dose) [M] -5.33, Senescent cells, mean, read-out: Mean % Cell Survival): 13.6%
- viability at 2.19 µM ([7]; Homo sapiens, A549, log (dose) [M] -5.66, Senescent cells, mean, read-out: Mean % Cell Survival): 17.1%
- viability at 1 µM ([7]; Homo sapiens, A549, log (dose) [M] -6, Senescent cells, mean, read-out: Mean % Cell Survival): 27.7%
- viability at 0.468 µM ([7]; Homo sapiens, A549, log (dose) [M] -6.33, Senescent cells, mean, read-out: Mean % Cell Survival): 43.7%
- viability at 0.219 µM ([7]; Homo sapiens, A549, log (dose) [M] -6.66, Senescent cells, mean, read-out: Mean % Cell Survival): 65.4%
- viability at 0.1 µM ([7]; Homo sapiens, A549, log (dose) [M] -7, Senescent cells, mean, read-out: Mean % Cell Survival): 94%
- viability at 0.0468 µM ([7]; Homo sapiens, A549, log (dose) [M] -7.33, Senescent cells, mean, read-out: Mean % Cell Survival): 91.8%
- viability at 0.0219 µM ([7]; Homo sapiens, A549, log (dose) [M] -7.66, Senescent cells, mean, read-out: Mean % Cell Survival): 109%
- viability at 0.01 µM ([7]; Homo sapiens, A549, log (dose) [M] -8, Senescent cells, mean, read-out: Mean % Cell Survival): 103%
- concentration at which a senolytic effect was reached ([7]; TIS A549, Hoechst labelling, marginal or no effect on normal cells): 1 µM
- % Cell Survival ([7]; log (dose) [M] -5): 4.269% and 4.259% and 10.4231%
- % Cell Survival ([7]; log (dose) [M] -5.33): 11.4818% and 14.3371% and 14.9601%
- % Cell Survival ([7]; log (dose) [M] -5.66): 15.9961% and 17.9964% and 17.29%
- % Cell Survival ([7]; log (dose) [M] -6): 23.7488% and 24.4151% and 34.8866%
- % Cell Survival ([7]; log (dose) [M] -6.33): 46.0255% and 39.6521% and 45.3096%
- % Cell Survival ([7]; log (dose) [M] -6.66): 63.9352% and 60.5879% and 71.5512%
- % Cell Survival ([7]; log (dose) [M] -7): 88.2728% and 86.8026% and 106.99%
- % Cell Survival ([7]; log (dose) [M] -7.33): 62.8557% and 104.139% and 108.461%
- % Cell Survival ([7]; log (dose) [M] -7.66): 92.002% and 113.377% and 120.969%
- % Cell Survival ([7]; log (dose) [M] -8): 100.736% and 105.159% and 103.556%

Source: PMC10257182, “Discovery of senolytics using machine learning” (Nature Communications, 2023)
